From publication PMC7451048 (Drug metabolism letters, 2019)

Experiments:
[1] = biological target: T1, OATP1B1 (Homo sapiens, UniProt Q9Y6L6); conditions: 3 min; for Inhibition of cellular uptake by RIF, OATP1B1-overexpressing cells: 20 μM RIF, BUP 5 μM, OHB 10 μM, TB 20 μM, EB 30 μM; for Apparent Vmax: net cellular uptake, CHO/OATP1B1-overexpressing cells, mean ± SD
T1 sequence (Q9Y6L6 1-691): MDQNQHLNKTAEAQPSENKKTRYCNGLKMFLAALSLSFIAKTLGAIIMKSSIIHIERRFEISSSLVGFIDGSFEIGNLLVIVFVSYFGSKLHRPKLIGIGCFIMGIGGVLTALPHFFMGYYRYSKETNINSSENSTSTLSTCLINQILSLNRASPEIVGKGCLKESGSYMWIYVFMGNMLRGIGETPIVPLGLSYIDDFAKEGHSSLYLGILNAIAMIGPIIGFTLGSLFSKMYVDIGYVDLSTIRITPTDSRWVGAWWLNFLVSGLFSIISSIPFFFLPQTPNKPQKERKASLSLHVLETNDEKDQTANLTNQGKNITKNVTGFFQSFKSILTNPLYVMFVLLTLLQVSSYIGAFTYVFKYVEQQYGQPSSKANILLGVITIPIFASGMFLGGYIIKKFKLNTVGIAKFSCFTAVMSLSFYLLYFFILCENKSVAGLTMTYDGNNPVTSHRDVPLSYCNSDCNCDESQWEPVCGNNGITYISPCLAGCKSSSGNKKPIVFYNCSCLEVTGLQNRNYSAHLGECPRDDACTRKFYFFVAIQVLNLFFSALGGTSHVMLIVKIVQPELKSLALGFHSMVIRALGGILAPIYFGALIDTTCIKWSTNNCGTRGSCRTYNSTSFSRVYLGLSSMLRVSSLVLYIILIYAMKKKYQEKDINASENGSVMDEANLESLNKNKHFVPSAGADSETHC

[2] = biological target: T2, OATP1B3 (Homo sapiens, UniProt Q9NPD5); conditions: 3 min; for Inhibition of cellular uptake by RIF, OATP1B3-overexpressing cells: 20 μM RIF, BUP 5 μM, OHB 30 μM, TB 10 μM, EB 5 μM; for Apparent Vmax / Km: net cellular uptake, CHO/OATP1B3-overexpressing cells, mean ± SD; for Km: read-out: Apparent Km
T2 sequence (Q9NPD5 1-702): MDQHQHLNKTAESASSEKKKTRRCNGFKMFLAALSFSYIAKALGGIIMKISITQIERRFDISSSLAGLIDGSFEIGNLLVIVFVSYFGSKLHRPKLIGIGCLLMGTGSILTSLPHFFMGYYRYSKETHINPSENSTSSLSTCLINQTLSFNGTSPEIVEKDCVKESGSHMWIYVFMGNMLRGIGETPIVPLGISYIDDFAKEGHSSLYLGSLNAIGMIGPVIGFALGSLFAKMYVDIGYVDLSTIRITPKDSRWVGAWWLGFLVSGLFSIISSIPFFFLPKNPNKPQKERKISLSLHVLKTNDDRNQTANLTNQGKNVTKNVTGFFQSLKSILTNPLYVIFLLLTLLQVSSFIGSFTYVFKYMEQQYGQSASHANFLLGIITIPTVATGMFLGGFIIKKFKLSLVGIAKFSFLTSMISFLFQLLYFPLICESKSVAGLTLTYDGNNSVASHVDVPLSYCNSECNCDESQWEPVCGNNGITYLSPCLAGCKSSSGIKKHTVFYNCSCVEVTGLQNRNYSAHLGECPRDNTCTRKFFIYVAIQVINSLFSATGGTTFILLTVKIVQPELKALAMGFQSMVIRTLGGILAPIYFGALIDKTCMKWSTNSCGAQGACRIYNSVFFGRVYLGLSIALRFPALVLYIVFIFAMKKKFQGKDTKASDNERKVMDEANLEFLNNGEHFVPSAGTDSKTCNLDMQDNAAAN

[3] = biological target: T2, OATP1B3
[4] = biological target: T3, OATP2B1 (Homo sapiens, UniProt O94956)
T3 sequence (O94956 1-709): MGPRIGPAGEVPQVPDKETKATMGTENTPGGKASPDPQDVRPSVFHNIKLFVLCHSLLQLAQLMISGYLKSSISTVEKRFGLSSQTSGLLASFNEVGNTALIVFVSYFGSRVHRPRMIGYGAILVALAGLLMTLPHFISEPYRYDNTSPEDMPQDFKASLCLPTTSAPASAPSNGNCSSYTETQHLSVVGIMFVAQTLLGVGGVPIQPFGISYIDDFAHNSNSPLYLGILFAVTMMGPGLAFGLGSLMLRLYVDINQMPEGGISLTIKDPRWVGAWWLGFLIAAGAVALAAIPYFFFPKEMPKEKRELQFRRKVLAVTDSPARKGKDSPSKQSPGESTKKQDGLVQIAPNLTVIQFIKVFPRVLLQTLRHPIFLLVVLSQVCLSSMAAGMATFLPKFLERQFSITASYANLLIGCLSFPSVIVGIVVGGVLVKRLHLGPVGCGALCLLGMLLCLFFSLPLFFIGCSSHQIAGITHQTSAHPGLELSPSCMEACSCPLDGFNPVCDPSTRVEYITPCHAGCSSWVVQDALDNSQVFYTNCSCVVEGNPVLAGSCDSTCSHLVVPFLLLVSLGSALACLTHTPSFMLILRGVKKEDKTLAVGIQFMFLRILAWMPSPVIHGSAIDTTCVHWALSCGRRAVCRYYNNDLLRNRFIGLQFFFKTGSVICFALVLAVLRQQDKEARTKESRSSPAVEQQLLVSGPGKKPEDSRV

[5] = biological target: T3, OATP2B1; conditions: 3 min; for Inhibition of cellular uptake by RIF, OATP2B1-overexpressing cells: 20 μM RIF, BUP 5 μM, OHB 30 μM, TB 20 μM, EB 100 μM; for Apparent Vmax / Km: net cellular uptake, HEK/OATP2B1-overexpressing cells, mean ± SD; for Km: read-out: Apparent Km
[6] = co-administration of clopidogrel and ticlopidine; ref [25]; cited from earlier work
[7] = higher than BUP; ref [10], [13], [16], [17]; cited from earlier work

SMILES | Inhibition of cellular uptake by RIF, OATP1B1-overexpressing cells [1] | Apparent Vmax [1] | Inhibition of cellular uptake by RIF, OATP1B3-overexpressing cells [2] | Apparent Vmax [2] | Km [2] | Substrate of OATP1B3 (conclusion) [3] | Substrate of OATP2B1 (conclusion) [4] | Inhibition of cellular uptake by RIF, OATP2B1-overexpressing cells [5] | Apparent Vmax [5] | Km [5] | Decrease in AUC [6] | Circulating concentration relative to the parent drug [7]
CC(NC(C)(C)C)C(O)c1cccc(Cl)c1 (stereo not drawn) [EB, Erythrohydrobupropion] | no statistically significant differences | 1806±133 pmol/mg protein/min | no statistically significant differences | 1026±37 pmol/mg protein/min | 14 ± 2 µM | not substrates | not substrates | no statistically significant differences | 1752±192 pmol/mg protein/min | 192 ± 35 µM |  | 
C[C@H]1NC(C)(C)CO[C@]1(O)c1cccc(Cl)c1 [OHB, Hydroxybupropion] | no statistically significant differences | 1423 ± 49 pmol/mg protein/min | no statistically significant differences | 1258±86 pmol/mg protein/min | 76 ± 14 µM | not substrates | not substrates | no statistically significant differences | 1641±98 pmol/mg protein/min | 74 ± 12 µM | 60–89% | 3 – 30 fold
C[C@H](NC(C)(C)C)[C@@H](O)c1cccc(Cl)c1 [TB, Threohydrobupropion] | no statistically significant differences | 1351±55 pmol/mg protein/min | no statistically significant differences | 2536±97 pmol/mg protein/min | 21 ± 3 µM | not substrates | not substrates | no statistically significant differences | 1368±72 pmol/mg protein/min | 53 ± 9 µM |  | 3 – 30 fold
